Reference: PubChem BioAssay AID1963960 (Molecular Pharmacology Branch, DTP, NCI, 2024)
Where “and” joins values, the source holds several entries; their conditions need not be identical. Equal entries are not always repeated.

Tested on: MDA-MB-468 spheroids with HUVEC/MSC, viability
Assay: Anticancer human tumor MDA-MB-468 cell line growth inhibition [PI3K];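 also: spheroids exposed to agents for seven days before readout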;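 as to viability, T/C: 100% = DMSO vehicle control viability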
Details: for viability, T/C: stronger effect = lower value
In short: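 High-throughput combination screen: PI3K inhibitors crossed with targeted small molecules on complex spheroids of tumor cells, HUVEC and MSCs at 37 degrees C, 5% CO2. Top concentration was at or near clinical Cmax (otherwise 10 microM), with half-log decrements.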

[1] = curve of first compound, second compound 0.0316 µM
[2] = curve of first compound, second compound 0.1 µM
[3] = curve of first compound, second compound 0.316 µM
[4] = curve of first compound, second compound 1 µM
[5] = second compound 0.0316 µM, first compound 0.0316 µM
[6] = second compound 0.0316 µM, first compound 0.1 µM
[7] = second compound 0.1 µM, first compound 0.0316 µM
[8] = second compound 0.1 µM, first compound 0.1 µM
[9] = second compound 0.316 µM, first compound 0.0316 µM
[10] = second compound 0.316 µM, first compound 0.1 µM
[11] = second compound 1 µM, first compound 0.0316 µM
[12] = second compound 1 µM, first compound 0.1 µM
[13] = curve of first compound, second compound 0.00316 µM
[14] = curve of first compound, second compound 0.01 µM
[15] = second compound 0.00316 µM, first compound 0.0316 µM
[16] = second compound 0.00316 µM, first compound 0.1 µM
[17] = second compound 0.00316 µM, first compound 0.316 µM
[18] = second compound 0.00316 µM, first compound 1 µM
[19] = second compound 0.00316 µM, first compound 3.16 µM
[20] = second compound 0.00316 µM, first compound 10 µM
[21] = second compound 0.01 µM, first compound 0.0316 µM
[22] = second compound 0.01 µM, first compound 0.1 µM
[23] = second compound 0.01 µM, first compound 0.316 µM
[24] = second compound 0.01 µM, first compound 1 µM
[25] = second compound 0.01 µM, first compound 3.16 µM
[26] = second compound 0.01 µM, first compound 10 µM
[27] = second compound 0.0316 µM, first compound 0.316 µM
[28] = second compound 0.0316 µM, first compound 1 µM
[29] = second compound 0.0316 µM, first compound 3.16 µM
[30] = second compound 0.0316 µM, first compound 10 µM
[31] = second compound 0.1 µM, first compound 0.316 µM
[32] = second compound 0.1 µM, first compound 1 µM
[33] = second compound 0.1 µM, first compound 3.16 µM
[34] = second compound 0.1 µM, first compound 10 µM
[35] = second compound 0.316 µM, first compound 0.316 µM
[36] = second compound 0.316 µM, first compound 1 µM
[37] = second compound 0.316 µM, first compound 3.16 µM
[38] = second compound 0.316 µM, first compound 10 µM
[39] = second compound 1 µM, first compound 0.316 µM
[40] = second compound 1 µM, first compound 1 µM
[41] = second compound 1 µM, first compound 3.16 µM
[42] = second compound 1 µM, first compound 10 µM

CC(C)n1nc(-c2ccc3oc(N)nc3c2)c2c(N)ncnc21 + Cc1nc(NC(=O)N2CCCC2C(N)=O)sc1-c1ccnc(C(C)(C)C(F)(F)F)c1
IC50 [1]: 50.6 nM
IC50 [2]: 33 nM
IC50 [3]: 24.5 nM
IC50 [4]: 19 nM
IC50 (curve of first compound, second compound 3.16 µM): 14.7 nM
IC50 (curve of first compound, second compound 10 µM): < 0.316 nM
viability, T/C (second compound 0.0316 µM, first compound 0.000316 µM): 88.3%
viability, T/C (second compound 0.0316 µM, first compound 0.001 µM): 82.8%
viability, T/C (second compound 0.0316 µM, first compound 0.00316 µM): 89.5%
viability, T/C (second compound 0.0316 µM, first compound 0.01 µM): 101%
viability, T/C [5]: 74.6%
viability, T/C [6]: 14.4%
viability, T/C (second compound 0.1 µM, first compound 0.000316 µM): 93.7%
viability, T/C (second compound 0.1 µM, first compound 0.001 µM): 79.6%
viability, T/C (second compound 0.1 µM, first compound 0.00316 µM): 85.5%
viability, T/C (second compound 0.1 µM, first compound 0.01 µM): 95%
viability, T/C [7]: 51.6%
viability, T/C [8]: 10.8%
viability, T/C (second compound 0.316 µM, first compound 0.000316 µM): 99.5%
viability, T/C (second compound 0.316 µM, first compound 0.001 µM): 94.3%
viability, T/C (second compound 0.316 µM, first compound 0.00316 µM): 86.2%
viability, T/C (second compound 0.316 µM, first compound 0.01 µM): 82.5%
viability, T/C [9]: 40.6%
viability, T/C [10]: 10.7%
viability, T/C (second compound 1 µM, first compound 0.000316 µM): 86.4%
viability, T/C (second compound 1 µM, first compound 0.001 µM): 75.6%
viability, T/C (second compound 1 µM, first compound 0.00316 µM): 63.6%
viability, T/C (second compound 1 µM, first compound 0.01 µM): 66.2%
viability, T/C [11]: 42.2%
viability, T/C [12]: 11.8%
viability, T/C (second compound 3.16 µM, first compound 0.000316 µM): 64.5%
viability, T/C (second compound 3.16 µM, first compound 0.001 µM): 58.4%
viability, T/C (second compound 3.16 µM, first compound 0.00316 µM): 61.1%
viability, T/C (second compound 3.16 µM, first compound 0.01 µM): 59.2%
viability, T/C (second compound 3.16 µM, first compound 0.0316 µM): 31.8%
viability, T/C (second compound 3.16 µM, first compound 0.1 µM): 9.62%
viability, T/C (second compound 10 µM, first compound 0.000316 µM): 42.4%
viability, T/C (second compound 10 µM, first compound 0.001 µM): 21.8%
viability, T/C (second compound 10 µM, first compound 0.00316 µM): 32.1%
viability, T/C (second compound 10 µM, first compound 0.01 µM): 20.7%
viability, T/C (second compound 10 µM, first compound 0.0316 µM): 18.5%
viability, T/C (second compound 10 µM, first compound 0.1 µM): 5.69%

CNC(=O)c1ccc(N2C(=S)N(c3ccc(C#N)c(C(F)(F)F)c3)C(=O)C2(C)C)cc1F + COc1c(OCCCN2CCOCC2)ccc2c3n(c(=NC(=O)c4cnc(N)nc4)nc12)CCN3
IC50 [13]: > 10000 nM
IC50 [14]: > 10000 nM
IC50 [1]: > 10000 nM
IC50 [2]: > 10000 nM
IC50 [3]: < 31.6 nM
IC50 [4]: < 31.6 nM
viability, T/C [15]: 85.4%
viability, T/C [16]: 90.6%
viability, T/C [17]: 88.5%
viability, T/C [18]: 101%
viability, T/C [19]: 77.4%
viability, T/C [20]: 70.8%
viability, T/C [21]: 81.9%
viability, T/C [22]: 89.8%
viability, T/C [23]: 87.8%
viability, T/C [24]: 86.2%
viability, T/C [25]: 79.7%
viability, T/C [26]: 75.6%
viability, T/C [5]: 82.4%
viability, T/C [6]: 80.7%
viability, T/C [27]: 82.8%
viability, T/C [28]: 80.2%
viability, T/C [29]: 82.5%
viability, T/C [30]: 60.7%
viability, T/C [7]: 52.7%
viability, T/C [8]: 54.2%
viability, T/C [31]: 59.5%
viability, T/C [32]: 57%
viability, T/C [33]: 59.9%
viability, T/C [34]: 49.2%
viability, T/C [9]: 26.4%
viability, T/C [10]: 27.4%
viability, T/C [35]: 29.3%
viability, T/C [36]: 30.1%
viability, T/C [37]: 29.6%
viability, T/C [38]: 20.8%
viability, T/C [11]: 4.39%
viability, T/C [12]: 4.39%
viability, T/C [39]: 4.07%
viability, T/C [40]: 4.23%
viability, T/C [41]: 4.41%
viability, T/C [42]: 2.21%

Cn1ncc(Cl)c1-c1cc(C(=O)NC(CN)Cc2cccc(F)c2)sc1Cl (centres undefined)
viability, T/C (compound 0.0316 µM): 86.1% [middle of 4 runs]
viability, T/C (compound 0.1 µM): 69.6% and 66.7% (2×) and 83%
viability, T/C (compound 0.316 µM): 53.9% [middle of 4 runs]
viability, T/C (compound 1 µM): 34.2% [middle of 4 runs]
viability, T/C (compound 3.16 µM): 29.6% [middle of 4 runs]
viability, T/C (compound 10 µM): 15.4% [middle of 4 runs]
IC50 (curve of compound): 462 nM [middle of 4 runs]

CC1(C)CCC(CN2CCN(c3ccc(C(=O)NS(=O)(=O)c4ccc(NCC5CCOCC5)c([N+](=O)[O-])c4)c(Oc4cnc5[nH]ccc5c4)c3)CC2)=C(c2ccc(Cl)cc2)C1
viability, T/C (compound 0.0316 µM): 92.6% [middle of 4 runs]
viability, T/C (compound 0.1 µM): 88% [middle of 4 runs]
viability, T/C (compound 0.316 µM): 97.9% [middle of 4 runs]
viability, T/C (compound 1 µM): 99.4% [middle of 4 runs]
viability, T/C (compound 3.16 µM): 72.8% [middle of 4 runs]

CC(C)NCC(C(=O)N1CCN(c2ncnc3c2C(C)CC3O)CC1)c1ccc(Cl)cc1 (centres undefined)
viability, T/C (compound 0.0316 µM): 89.5% [middle of 4 runs]
viability, T/C (compound 0.1 µM): 81.3% [middle of 4 runs]
viability, T/C (compound 1 µM): 54.2% [middle of 4 runs]
viability, T/C (compound 3.16 µM): 32.4% [middle of 4 runs]
viability, T/C (compound 10 µM): 26.4% and 22.6% (2×) and 27%
IC50 (curve of compound): 1.29 µM [middle of 4 runs]

Cn1nccc1Nc1nccc(-c2ccn(C(CO)c3ccc(Cl)c(F)c3)c(=O)c2)n1 (centres undefined) + COc1c(OCCCN2CCOCC2)ccc2c3n(c(=NC(=O)c4cnc(N)nc4)nc12)CCN3
IC50 [13]: > 10000 nM
IC50 [14]: > 10000 nM
IC50 [1]: 7630 nM
IC50 [2]: 4400 nM
IC50 [3]: < 31.6 nM
IC50 [4]: < 31.6 nM
viability, T/C [15]: 90.7%
viability, T/C [16]: 83%
viability, T/C [17]: 79.1%
viability, T/C [18]: 85.3%
viability, T/C [19]: 81.3%
viability, T/C [20]: 73.6%
viability, T/C [21]: 71.1%
viability, T/C [22]: 86.5%
viability, T/C [23]: 78.7%
viability, T/C [24]: 71.8%
viability, T/C [25]: 77.9%
viability, T/C [26]: 76.9%
viability, T/C [5]: 71.3%
viability, T/C [6]: 68.7%
viability, T/C [27]: 71.7%
viability, T/C [28]: 73.9%
viability, T/C [29]: 61.9%
viability, T/C [30]: 46%
viability, T/C [7]: 56.3%
viability, T/C [8]: 54.9%
viability, T/C [31]: 52.5%
viability, T/C [32]: 52.4%
viability, T/C [33]: 50.9%
viability, T/C [34]: 48.6%
viability, T/C [9]: 24.6%
viability, T/C [10]: 23.3%
viability, T/C [35]: 23.3%
viability, T/C [36]: 24.9%
viability, T/C [37]: 26%
viability, T/C [38]: 19.9%
viability, T/C [11]: 3.06%
viability, T/C [12]: 2.27%
viability, T/C [39]: 2.37%
viability, T/C [40]: 2.51%
viability, T/C [41]: 1.79%
viability, T/C [42]: 0.85%
